Experimental data from publication PMC7144554, “2-(Arylamino)-6-(trifluoromethyl)nicotinic Acid Derivatives: New HIV-1 RT Dual Inhibitors Active on Viral Replication” (Molecules, 2020).
Several values for one entry are separate records, joined by “and”; a condition that tells them apart may be missing. Equal values may be shown once. Read-outs that look alike come from different tables or passages of the source.

How the values were obtained:
[1] = target: T1, HIV-1 RT-associated RNase H activity (wt RT) (Human immunodeficiency virus type 1 group M subtype B, UniProt P04585); test: HIV-1 DNA polymerase-independent RNase H activity, wt RT; type: biochemical; details: for IC50: RNase H IC50, wt RT
T1 construct: RT is a heterodimeric (p66/p51) multifunctional enzyme; made in house; host or cells: Escherichia coli strain M15
Procedure: p6HRT-prot vector was kindly provided by Dr. Stuart Le Grice Laboratory. Heterodimeric RT was expressed essentially as described. Briefly, Escherichia coli strain M15 containing the p6HRT-prot vector were grown up to an OD600 of 0.7 and induced with isopropyl β-D-1-thiogalactopyranoside (IPTG) 1.7 mM for 4 h. Cell pellets were resuspended in Lysis buffer (50 mM sodium phosphate pH 7.8, 0.5 mg/mL lysozyme), incubated on ice for 20 min, added 0.3 M final NaCl, sonicated and centrifuged at 30,000× g for 1 h. The supernatant was loaded into a Ni^2+-sepharose column pre-equilibrated with loading buffer (50 mM sodium phosphate pH 7.8, 0.3 M NaCl, 10% glycerol, 10 mM imidazole) and washed thoroughly with wash buffer (50 mM sodium phosphate pH 6.0, 0.3 M NaCl, 10% glycerol, 80 mM imidazole). RT was gradient-eluted with elute buffer (wash buffer with 0.5 M imidazole). Fractions were collected, protein purity was checked by SDS-PAGE and found to be higher than 90%. RT containing fractions were pooled and diluted 1:1 with dilute buffer (50 mM sodium phosphate pH 7.0, 10% glycerol) then loaded into a Hi-trap Heparine HP GE (Healthcare Lifescience) pre-equilibrated with 10-column volume of loading buffer 2 (50 mM sodium phosphate pH 7.0, 10% glycerol, 150 mM NaCl). Column was then washed with loading buffer 2 and RT was gradient-eluted with elute buffer 2 (50 mM sodium phosphate pH 7.0, 10% glycerol, 150 mM NaCl). Fractions were collected, protein was dialyzed and stored in buffer containing 50 mM Tris HCl pH 7.0, 25 mM NaCl, 1 mM EDTA, 50% glycerol. Catalytic activities and protein concentration were determined. Enzyme-containing fractions were pooled and aliquots were stored at −80 °C.
(§1) The RT-associated RNase H activity of wt and mutated HIV RTs was measured as described, in 100 µL reaction volume containing 50 mM Tris HCl pH 7.8, 6 mM MgCl2, 1 mM dithiothreitol (DTT), 80 mM KCl, hybrid RNA/DNA (5’-[…]-3’-Fluorescein, 5’-[…]-3’-Dabcyl), and different amounts of enzymes according to a linear range of dose-response curve—20 ng of wt RT; 50 ng K103N RT; 100 ng V108A RT; 4 ng Y181C RT; 100 ng Q475A RT; 100 ng A502F RT. The reaction mixture was incubated for 1 h at 37 °C, the reaction was stopped by addition of EDTA and products were measured with a Victor 3 (Perkin) at 490/528 nm.

[2] = target: T2, V108A RT RNase H function (Human immunodeficiency virus type 1 group M subtype B, UniProt P04585, V695A); test: RNase H activity of mutated RT V108A; type: biochemical, HIV-1
T2 construct: Amino acid substitutions were introduced into the p66 HIV-1 RT subunit coded in a p6HRT-prot plasmid; made in house; host or cells: Escherichia coli strain M15
Procedure: (§2) Amino acid substitutions were introduced into the p66 HIV-1 RT subunit coded in a p6HRT-prot plasmid using the QuikChange protocol (Agilent Technologies Inc., Santa Clara, CA).
as §1

[3] = target: T3, Q475A RT RNase H function (Human immunodeficiency virus type 1 group M subtype B, UniProt P04585, Q1062A); test: RNase H activity of mutated RT Q475A; type: biochemical, HIV-1; details: for RNase H Fold: vs wt RT
T3 construct: Amino acid substitutions were introduced into the p66 HIV-1 RT subunit coded in a p6HRT-prot plasmid; made in house; host or cells: Escherichia coli strain M15
Procedure: as §2, §1

[4] = target: T4, A502F RT RNase H function (Human immunodeficiency virus type 1 group M subtype B, UniProt P04585, A1089F); test: RNase H activity of mutated RT A502F; type: biochemical, HIV-1; details: for RNase H Fold: vs wt RT
T4 construct: Amino acid substitutions were introduced into the p66 HIV-1 RT subunit coded in a p6HRT-prot plasmid; made in house; host or cells: Escherichia coli strain M15
Procedure: as §2, §1

HIV-1 IIIB strain = test: Antiviral assay, HIV-1 replication in TZMbl cells (luciferase); type: cell-based; details: for EC50: read-out: HIV-1 EC50 TZMbl Cells
Procedure: Drug-mediated inhibition of virus-induced cytotoxicity was assayed in TZM-BL cells. […] Serial dilutions of drugs were added immediately after infection. Luciferase activity was measured as reported [67]. Two days after infection, the culture medium was removed from each well and 100 µl of Bright Glo reagent (Promega, Luis Obispo, CA) was added to the cells for measurement of luminescence using a Victor 2 luminometer (Perkin). […] Cell viability in CEM cells was quantified 5 days after infection with the MTT-dye reduction method.

[5] = Cytotoxicity in TZMbl cells; type: cell-based; details: human
TZMbl cells = test: Cytotoxicity in TZMbl cells; type: cell-based; details: highest concentration tested
[6] = Cell viability in CEM cells (MTT); type: cell-based; details: human, MTT, 5 days
Procedure: (§3) Drug-mediated inhibition of virus-induced cytotoxicity was assayed in TZM-BL cells. Triplicate wells of 96-well plates containing 1 × 10^4 TZMbl cells were infected with HIV-1 IIIB strain at a multiplicity of infection of 0.1. Serial dilutions of drugs were added immediately after infection. Luciferase activity was measured as reported. Two days after infection, the culture medium was removed from each well and 100 µl of Bright Glo reagent (Promega, Luis Obispo, CA) was added to the cells for measurement of luminescence using a Victor 2 luminometer (Perkin). The 50% effective concentration (EC50) was defined as the concentration that caused a 50% reduction of luciferase activity (relative light units) compared to virus control wells. Cell viability in CEM cells was quantified 5 days after infection with the MTT-dye reduction method.

CEM cells = test: Cell viability in CEM cells (MTT); type: cell-based; details: highest concentration tested
Procedure: as §3

[7] = target: T5, K103N RT RNase H function (Human immunodeficiency virus type 1 group M subtype B, UniProt P04585, K690N); test: RNase H activity of mutated RT K103N; type: biochemical, HIV-1
T5 construct: Amino acid substitutions were introduced into the p66 HIV-1 RT subunit coded in a p6HRT-prot plasmid; made in house; host or cells: Escherichia coli strain M15
Procedure: as §2, §1

[8] = target: T6, Y181C RT RNase H function (Human immunodeficiency virus type 1 group M subtype B, UniProt P04585, Y768C); test: RNase H activity of mutated RT Y181C; type: biochemical, HIV-1
T6 construct: Amino acid substitutions were introduced into the p66 HIV-1 RT subunit coded in a p6HRT-prot plasmid; made in house; host or cells: Escherichia coli strain M15
Procedure: as §2, §1

[9] = target: T7, HIV-1 RT-associated RDDP activity (wt RT) (Human immunodeficiency virus type 1 group M subtype B, UniProt P04585); test: biochemical
T7 construct: RT is a heterodimeric (p66/p51) multifunctional enzyme; made in house; host or cells: Escherichia coli strain M15
Procedure: p6HRT-prot vector was kindly provided by Dr. Stuart Le Grice Laboratory. Heterodimeric RT was expressed essentially as described [42]. Briefly, Escherichia coli strain M15 containing the p6HRT-prot vector were grown up to an OD600 of 0.7 and induced with isopropyl β-D-1-thiogalactopyranoside (IPTG) 1.7 mM for 4 h. Cell pellets were resuspended in Lysis buffer (50 mM sodium phosphate pH 7.8, 0.5 mg/mL lysozyme), incubated on ice for 20 min, added 0.3 M final NaCl, sonicated and centrifuged at 30,000× g for 1 h. The supernatant was loaded into a Ni^2+-sepharose column pre-equilibrated with loading buffer (50 mM sodium phosphate pH 7.8, 0.3 M NaCl, 10% glycerol, 10 mM imidazole) and washed thoroughly with wash buffer (50 mM sodium phosphate pH 6.0, 0.3 M NaCl, 10% glycerol, 80 mM imidazole). RT was gradient-eluted with elute buffer (wash buffer with 0.5 M imidazole). Fractions were collected, protein purity was checked by SDS-PAGE and found to be higher than 90%. […] Catalytic activities and protein concentration were determined. […]
The HIV-1 RT-associated RDDP activity was measured as described [66]. […]

K103N RT RDDP activity = target: T8, K103N RT RDDP activity (Human immunodeficiency virus type 1 group M subtype B, UniProt P04585, K690N); test: biochemical; design: species or system HIV-1
T8 construct: Amino acid substitutions were introduced into the p66 HIV-1 RT subunit coded in a p6HRT-prot plasmid; made in house; host or cells: Escherichia coli strain M15
Procedure: (§4) The HIV-1 RT-associated RDDP activity was measured as described [66]. Briefly, in 25 µL volume containing 60 mM Tris-HCl pH 8.1, 8 mM MgCl2, 60 mM KCl, 13 mM DTT, poly(A)-oligo(dT), 100 µM dTTP, and 6 ng wt RT (or 21 ng K103N RT; 30 ng V108A RT; 1,5 ng Y181C RT; 21 ng Q475A RT; 15 ng A502F RT).

Y181C RT RDDP activity = target: T9, Y181C RT RDDP activity (Human immunodeficiency virus type 1 group M subtype B, UniProt P04585, Y768C); test: biochemical; design: species or system HIV-1
T9 construct: Amino acid substitutions were introduced into the p66 HIV-1 RT subunit coded in a p6HRT-prot plasmid; made in house; host or cells: Escherichia coli strain M15
Procedure: as §4

V108A RT RDDP activity = target: T10, V108A RT RDDP activity (Human immunodeficiency virus type 1 group M subtype B, UniProt P04585, V695A); test: biochemical; design: species or system HIV-1
T10 construct: Amino acid substitutions were introduced into the p66 HIV-1 RT subunit coded in a p6HRT-prot plasmid; made in house; host or cells: Escherichia coli strain M15
Procedure: as §4

Q475A RT RDDP activity = target: T11, Q475A RT RDDP activity (Human immunodeficiency virus type 1 group M subtype B, UniProt P04585, Q1062A); test: biochemical; design: species or system HIV-1
T11 construct: Amino acid substitutions were introduced into the p66 HIV-1 RT subunit coded in a p6HRT-prot plasmid; made in house; host or cells: Escherichia coli strain M15
Procedure: as §4

A502F RT RDDP activity = target: T12, A502F RT RDDP activity (Human immunodeficiency virus type 1 group M subtype B, UniProt P04585, A1089F); test: biochemical; design: species or system HIV-1
T12 construct: Amino acid substitutions were introduced into the p66 HIV-1 RT subunit coded in a p6HRT-prot plasmid; made in house; host or cells: Escherichia coli strain M15
Procedure: as §4

[10] = Human immunodeficiency virus 1, TZM-bl, TZMbl cells, HIV-1 IIIB

Compound	IC50 [1]	EC50 (HIV-1 IIIB strain; [10]) [µM]	CC50 [5] [µM]	percentage of cells viability in presence of the highest concentration of inhibitor tested, TZMbl (TZMbl cells) [%]	CC50 at 5 days [6] [µM]	percentage of cells viability in presence of the highest concentration of inhibitor tested, CEM cells (CEM cells) [%]	melting point [°C]	further results
CC(C)c1ccc(O)c(=O)c(O)c1 [BTP, beta-Thujaplicinol, reference compound]	–	–	–	–	–	–	–	RNase H Fold ([1]; WT RT): 1; IC50 ([2]; read-out: RNase H IC50, V108A RT): 0.34 ± 0.4 µM; IC50 [3]: 0.19 ± 0.03 µM; RNase H Fold ([3]; Q475A RT): 1.0; IC50 ([4]; A502F RT, read-out: RNase H IC50): 0.17 ± 0.03 µM; RNase H Fold ([4]; A502F RT): 0.9
CCOC(=O)c1ccc(C(F)(F)F)nc1Nc1cc(Cl)ccc1C [Compound 9]	24 ± 1.7 µM	> 10	> 50	75	> 50	100	–	–
Cc1ccc(Cl)cc1Nc1nc(C(F)(F)F)ccc1C(=O)Oc1cccc(O)c1 [Compound 17, 3-Hydroxyphenyl 2-((5-chloro-2-methylphenyl)amino)-6-(trifluoromethyl)nicotinate]	26.6 ± 5.6 µM	> 50	> 50	62	> 50	100	188 to 190	–
COc1cc(OC)cc(OC(=O)c2ccc(C(F)(F)F)nc2Nc2cc(Cl)ccc2C)c1 [Compound 21]	14 µM and 14.7 µM	5 ± 0.8	> 50	59	> 50	100	–	IC50 [7]: 53.9 ± 2.2 µM; IC50 [8]: 11.9 ± 1.4 µM; IC50 [2]: > 100 µM; RNase H IC50 ([2]; V108A RT): completely lost its RNase H inhibitory efficacy; IC50 [3]: > 100 µM; RNase H IC50 ([3]; Q475A RT): completely lost its RNase H inhibitory efficacy; RNase H Fold ([3]; Q475A RT): >6.8; IC50 [4]: > 100 µM; RNase H IC50 ([4]; A502F RT): completely lost its RNase H inhibitory efficacy; RNase H Fold ([4]; A502F RT): >6.8; IC50 [9]: 16.1 ± 1.2 µM; IC50 (K103N RT RDDP activity): 16.5 ± 4.8 µM; IC50 (Y181C RT RDDP activity): 22.5 ± 5.3 µM; IC50 (V108A RT RDDP activity): 82.8 ± 6.3 µM; IC50 (Q475A RT RDDP activity): 17 ± 4.5 µM; IC50 (A502F RT RDDP activity): 8 ± 0.7 µM; RDDP Fold (A502F RT RDDP activity; A502F RT, IC50 mutated RT / IC50 wt RT): 0.5
COc1ccc(OC(=O)c2ccc(C(F)(F)F)nc2Nc2cc(Cl)ccc2C)cc1 [Compound 23]	11.6 ± 4.3 µM	> 10	> 50	70	> 50	100	–	–
COc1ccccc1CNC(=O)c1ccc(C(F)(F)F)nc1Nc1cc(Cl)ccc1C [Compound 39, 2-((5-Chloro-2-methylphenyl)amino)-N-(2-methoxybenzyl)-6-(trifluoromethyl)nicotinamide]	18.7 ± 1.7 µM	> 10	14.8 ± 3.1	–	> 12.5	55	148 to 150	–
Cc1ccc(Cl)cc1Nc1nc(C(F)(F)F)ccc1C(=O)N1CCN(c2ccc(Cl)c(Cl)c2)CC1 [Compound 52, (2-((5-Chloro-2-methylphenyl)amino)-6-(trifluoromethyl)pyridin-3-yl)(4-(3,4-dichlorophenyl)piperazin-1-yl)methanone]	7.5 ± 2 µM	10 ± 1.2	15.7 ± 5.1	–	> 50	76	165 to 167	SI (selectivity index) (HIV-1 IIIB strain; TZMbl cells): 1.6
O=C1Nc2ccc(Cl)cc2[C@@](C#CC2CC2)(C(F)(F)F)O1 [EFV, efavirenz, reference compound]	–	–	> 50	100	> 50	100	–	EC50 (HIV-1 IIIB strain; Human immunodeficiency virus 1, IIIB, TZM-bl): 0.15 ± 0.02 µM
